In patent US12590092B2, “Antiviral agents and uses thereof” (GRIFFITH UNIVERSITY, priority 2021, dated 2026):
Where two headings read alike, the source gives them in different places.

Tests used:
[1] = target: hPIV-3 C243 HN (haemagglutination function) (UniProt P08492, species not given/STRAIN_C243); assay: Haemagglutination inhibition assay, hPIV-3 C243; format: biochemical, hPIV-3 (strain C-243); settings: 1% human red blood cells
[2] = target: hPIV-3 C243 HN (neuraminidase function) (UniProt P08492, species not given/STRAIN_C243); assay: Neuraminidase inhibition assay (MUN), hPIV-3 C243; format: biochemical, hPIV-3 (strain C-243); settings: pH 4.6
[3] = target: hPIV-3 CI002 HN (neuraminidase function) (UniProt P08492, species not given/STRAIN_CI002); assay: Neuraminidase inhibition assay (MUN), hPIV-3 CI002; format: biochemical, hPIV-3 (strain CI002, clinical isolate); settings: pH 4.6
[4] = target: hPIV-1 C35 HN (neuraminidase function) (Human parainfluenza 1 virus, UniProt P16071); assay: Neuraminidase inhibition assay (MUN), hPIV-1 C35; format: biochemical, hPIV-1 (strain C-35)
hPIV-3 C243 = assay: In situ ELISA virus growth inhibition, hPIV-3 C243; format: cell-based, hPIV-3 (strain C243) in LLC-MK2 cells (Rhesus monkey kidney); settings: read-out: Viral Growth IC50
hPIV-3 CI002 = assay: In situ ELISA virus growth inhibition, hPIV-3 CI002; format: cell-based; settings: Human respirovirus 3, in Macaca mulatta, LLC-MK2 cells, 36-40 h, read-out: Viral Growth IC50 (converted)
[5] = target: hPIV-3 CI002 HN (haemagglutination function) (UniProt P08492, species not given/STRAIN_CI002); assay: Haemagglutination inhibition assay, hPIV-3 CI002; format: biochemical, hPIV-3 (strain CI002, clinical isolate); settings: 1% human red blood cells
[6] = target: hPIV-1 C35 HN (haemagglutination function) (Human parainfluenza 1 virus, UniProt P16071); assay: Haemagglutination inhibition assay, hPIV-1 C35; format: biochemical, hPIV-1 (strain C-35)
[7] = Human respirovirus 3, in Macaca mulatta, hPIV-3 C243, LLC-MK2 cells, in situ ELISA, 36-40 h
[8] = Human respirovirus 3, LLC-MK2, in Macaca mulatta

Chain of hPIV-3 CI002 HN (neuraminidase function) (P08492 whole entry, change not shown): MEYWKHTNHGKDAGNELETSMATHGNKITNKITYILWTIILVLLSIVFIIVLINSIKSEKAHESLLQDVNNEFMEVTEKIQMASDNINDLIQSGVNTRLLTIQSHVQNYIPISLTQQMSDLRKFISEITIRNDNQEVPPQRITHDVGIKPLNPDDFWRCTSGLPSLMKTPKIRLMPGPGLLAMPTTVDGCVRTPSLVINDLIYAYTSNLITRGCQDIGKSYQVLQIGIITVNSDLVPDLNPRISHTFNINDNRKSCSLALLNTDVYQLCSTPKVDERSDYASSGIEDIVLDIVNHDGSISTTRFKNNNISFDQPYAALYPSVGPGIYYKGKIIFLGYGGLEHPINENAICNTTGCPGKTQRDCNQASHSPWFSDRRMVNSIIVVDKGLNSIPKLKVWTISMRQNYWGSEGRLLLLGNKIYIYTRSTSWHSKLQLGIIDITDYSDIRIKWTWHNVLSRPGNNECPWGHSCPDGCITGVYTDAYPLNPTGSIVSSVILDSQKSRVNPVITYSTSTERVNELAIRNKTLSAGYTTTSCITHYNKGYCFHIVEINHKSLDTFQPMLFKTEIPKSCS
Chain of hPIV-3 CI002 HN (haemagglutination function) (P08492 whole entry, change not shown): as above
Chain of hPIV-3 C243 HN (neuraminidase function) (P08492 whole entry, change not shown): as above
Chain of hPIV-3 C243 HN (haemagglutination function) (P08492 whole entry, change not shown): as above
Chain of hPIV-1 C35 HN (haemagglutination function) (P16071 whole entry): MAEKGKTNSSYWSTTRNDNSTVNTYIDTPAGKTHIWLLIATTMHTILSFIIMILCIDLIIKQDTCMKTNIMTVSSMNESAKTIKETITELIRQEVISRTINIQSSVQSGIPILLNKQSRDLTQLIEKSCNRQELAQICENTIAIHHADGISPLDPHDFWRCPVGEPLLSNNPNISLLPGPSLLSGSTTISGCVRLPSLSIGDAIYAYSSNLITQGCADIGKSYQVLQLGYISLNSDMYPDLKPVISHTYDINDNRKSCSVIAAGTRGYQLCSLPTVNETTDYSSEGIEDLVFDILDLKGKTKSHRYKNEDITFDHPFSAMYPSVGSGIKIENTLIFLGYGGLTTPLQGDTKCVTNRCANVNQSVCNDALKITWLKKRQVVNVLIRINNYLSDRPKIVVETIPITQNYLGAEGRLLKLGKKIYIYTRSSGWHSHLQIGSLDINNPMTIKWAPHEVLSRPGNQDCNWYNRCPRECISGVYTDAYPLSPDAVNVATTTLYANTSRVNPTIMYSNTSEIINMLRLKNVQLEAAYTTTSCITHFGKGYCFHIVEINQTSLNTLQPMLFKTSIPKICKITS
Chain of hPIV-1 C35 HN (neuraminidase function) (P16071 whole entry): as above

CC(C)C(=O)N[C@H]1[C@H]([C@H](O)[C@H](O)CO)OC(C(=O)O)=C[C@@H]1n1nnc2ccc3[nH]ccc3c21 (single isomer, unassigned) [IE1963-113a]
IC50 [1]: 36.7 µM
IC50 [2]: 17 ± 0.764 µM
IC50 [3]: 34.9 µM
IC50 [4]: 6.33 µM
IC50 (hPIV-3 C243; [7]): 111 ± 9.29 µM
IC50 (hPIV-3 CI002): 42.6 µM

CC(C)C(=O)N[C@H]1[C@H]([C@H](O)[C@H](O)CO)OC(C(=O)O)=C[C@@H]1n1nnc2c3cc[nH]c3ccc21 (single isomer, unassigned) [IE1963-113b]
IC50 [1]: 3 µM
IC50 [2]: 5.14 ± 0.777 µM
IC50 [3]: 17.1 µM
IC50 [4]: 8.4 µM
IC50 (hPIV-3 C243; [7]): 24.4 ± 3.35 µM
IC50 (hPIV-3 CI002): 8.7 µM

O=C(O)C1=C[C@H](n2cc3ccncc3n2)[C@@H](NC(=O)C(F)(F)F)[C@H]([C@H](O)[C@H](O)CO)O1 [JC2001-48, 2,6-Anhydro-3,4,5-trideoxy-5-(2,2,2-trifluoroacetamido)-4-(2H-pyrazolo[3,4-c]pyridin-2-yl)-D-glycero-D-galacto-non-2-enonic Acid]
IC50 [1]: 13.1 µM
IC50 [5]: 4.94 µM
IC50 [6]: 0.27 µM
IC50 [2]: 21.5 µM
IC50 [3]: 29.2 µM
IC50 [4]: 1.71 µM
IC50 (hPIV-3 C243; [8]): 54.5 ± 16.1 µM
IC50 (hPIV-3 CI002): 8.48 µM

O=C(O)C1=C[C@H](n2cc3ncccc3n2)[C@@H](NC(=O)C(F)(F)F)[C@H]([C@H](O)[C@H](O)CO)O1 [JC2001-49, 2,6-Anhydro-3,4,5-trideoxy-5-(2,2,2-trifluoroacetamido)-4-(2H-pyrazolo[4,3-b]pyridin-2-yl)-D-glycero-D-galacto-non-2-enonic Acid]
IC50 [1]: 13.1 µM
IC50 [5]: 4.94 µM
IC50 [6]: 14.8 µM
IC50 [2]: 8.33 ± 1.24 µM
IC50 [3]: 15.1 µM
IC50 [4]: 23.2 µM
IC50 (hPIV-3 C243; [8]): 26.9 µM
IC50 (hPIV-3 CI002): 11.5 µM

CC(C)C(=O)N[C@H]1[C@H]([C@H](O)[C@H](O)CO)OC(C(=O)O)=C[C@@H]1n1cc2cc(F)sc2c1C#N [RE1993-40]
IC50 [1]: 0.735 ± 0.259 µM
IC50 [5]: 0.82 µM
IC50 [6]: 22.2 µM
IC50 [2]: 1.14 ± 0.021 µM
IC50 [3]: 2.71 µM
IC50 [4]: 5.41 µM
IC50 (hPIV-3 C243; [7]): 3.22 ± 0.726 µM
IC50 (hPIV-3 CI002): 3.96 µM

O=C(O)C1=C[C@H](n2cc3ccc4cccnc4c3n2)[C@@H](NC(=O)C(F)(F)F)[C@H]([C@H](O)[C@H](O)CO)O1 [RP1967-89, 2,6-Anhydro-3,4,5-trideoxy-5-(2,2,2-trifluoroacetamida)-4-(2H-pyrazolo[4,3-h]quinolin-2-yl)-D-glycero-D-galacto-non-2-enonic Acid]
IC50 [1]: 3 µM
IC50 [5]: 4.94 µM
IC50 [6]: > 200 µM
IC50 [2]: 5.52 ± 0.983 µM
IC50 [3]: 19.9 µM
IC50 [4]: 88.9 µM
IC50 (hPIV-3 C243; [8]): 9.67 µM
IC50 (hPIV-3 CI002): 5 µM
